Measured values taken from US20150258059A1, “ANTIMICROBIAL AND RADIOPROTECTIVE COMPOUNDS” (BioDiem, Ltd, priority 2001, published 2015).
Values after ≈ are worked out from the molar mass of the structure shown. Where two headings read alike, the source gives them in different places. Marks after values point to notes of the source that are not given here.

Legend:
Candida albicans [1] = experiment: Rate of kill, viable counts
Geotrichum M-158 = experiment: Sensitivity of pathogenic fungi; type: cell-based; settings: Inoculation 10^5
Corynebacterium B-670 = experiment: Agar diffusion assay; type: cell-based
[2] = test system: Shigella flexneri M-2A6907; experiment: Sensitivity of strains: suppression of growth; type: cell-based; settings: Compound (1) 1.0%; antibiotics disc method
Streptococcus pyogenes = experiment: MIC in increasing concentrations of plasma; type: cell-based
Excerpt: […]. Serum binding is significant in drug distribution and bioavailability.
[…]. Bactericidal activity is much more affected than inhibitory activity.

[3] = test system: Salmonella intraperitoneally; experiment: Anti-bacterial activity in vivo, infected mice; settings: schedule −1, 0, +1, +2, +3; 200 mg/kg intrmuscularly
[4] = test system: six bacterial test cultures; type: cell-based
Rhodotorula rubra = experiment: NCCLS broth macro-dilution MIC/MFC (RPMI); type: cell-based; settings: Table 10, 4 day, 30° C.
Candida albicans [5] = experiment: NCCLS broth macro-dilution MIC/MFC (RPMI); type: cell-based; settings: Table 10, 4 day, 30° C.
Proteus vulgaris RMIT = experiment: NCCLS broth microdilution MIC/MBC; type: cell-based; settings: for MIC: Proteus vulgaris
Shigella sonnei B-720 = experiment: Agar diffusion assay; type: cell-based
Enterococcus faecalis = experiment: Rate of kill, viable counts; settings: 512 μg/mL; at 9 h
Acinetobacter B-681 = experiment: Sensitivity of strains: suppression of growth; type: cell-based; settings: Compound (1) 1.0%; antibiotics disc method
Staphylococcus aureus = experiment: Agar plug diffusion, zone of retardation; settings: plug impregnated at 0.5%
Candida albicans [6] = experiment: microbe, parasite or virus in culture; type: cell-based; settings: for MIC: Candida albicans
B. subtilis = experiment: Antibacterial activity in the presence of blood, macrodilution; type: cell-based; settings: for MIC: Bacillus subtilis
Campylobacter spp. = experiment: NCCLS broth microdilution MIC/MBC; type: cell-based; settings: Table 9, 48 h
Excerpt: (§1) NCCLS-USA Standard Method—Broth microdilution (or macrodilution) (Mueller-Hinton).
(§2) Inoculum 1-4×10^4 cfu (or −4×10^5 cfu). Ciprofloxacin test control. Chlorhexidine values added for disinfectant and antiseptic activity comparison.

Klebsiella oxytoca = experiment: NCCLS broth microdilution MIC/MBC; type: cell-based; settings: for MIC: Klebsiella oxytoca
Excerpt: as §1, §2

Clostridium difficile = experiment: NCCLS broth microdilution MIC/MBC; type: cell-based; settings: Clostridioides difficile; Table 9
Excerpt: as §1, §2

[7] = test system: Acinetobacter calcoaceticus RMIT; experiment: NCCLS broth microdilution MIC/MBC; type: cell-based; settings: for MIC: Acinetobacter calcoaceticus
Excerpt: as §1, §2

Paecilomyces variotii = experiment: M38-P microdilution MIC/MFC; type: cell-based; settings: Table 16, 48 h, 35° C.
Aspergillus fumigatus = experiment: microbe, parasite or virus in culture; type: cell-based; settings: for MIC: Aspergillus fumigatus
[8] = test system: Staphylococcus aureus B-685; experiment: Sensitivity of strains: suppression of growth; type: cell-based; settings: Compound (1) 1.0%; antibiotics disc method
[9] = test system: Torula histolytica (Cryptococcus); experiment: Sensitivity of pathogenic fungi; type: cell-based; settings: Inoculation 10^5
[10] = test system: Staphylococcus aureus B-674; experiment: Sensitivity of strains: suppression of growth; type: cell-based; settings: Compound (1) 1.0%; antibiotics disc method
[11] = test system: Escherichia coli ATCC 25922; experiment: NCCLS broth microdilution MIC/MBC; type: cell-based; settings: for MIC: Escherichia coli, ATCC25922, read-out: MIC
C. jejuni 541-3 = experiment: MIC/MMC against clinical strains of Campylobacter spp.; settings: Table 18; clinical strain isolated from humans
[12] = before exposure, MHB, read-out: Standard MIC Initial

Compound: C/C(=C\c1ccc2c(c1)OCO2)[N+](=O)[O-] [Compound (1)]
- Log reduction in viable count (Candida albicans [1]; 128 μg/mL, in 6h): 2 in 6h
- Log reduction in viable count (Candida albicans [1]; 256 μg/mL, in 4h): 6 in 4h
- Log reduction in viable count (Candida albicans [1]; 512 μg/mL, at 2 h): 5.5 at 2 h
- reduction (kill) (Candida albicans [1]; within 2 hrs at 512 μg/mL): > 99.999%
- reduction (kill) (Candida albicans [1]; within 4 hours at 256 μg/mL): > 99.999%
- Number of microbes: Growth (Geotrichum M-158; 0.1%): 0
- Number of microbes: Retardation (Geotrichum M-158; 0.1%): 10^4
- Number of microbes: Growth (Geotrichum M-158; 0.5%): 0
- Number of microbes: Retardation (Geotrichum M-158; 0.5%): 10^5
- Number of microbes: Growth (Geotrichum M-158; 2.0%): 0
- Number of microbes: Retardation (Geotrichum M-158; 2.0%): 10^5
- Diameter of zone of Growth inhibition (Corynebacterium B-670; Concentration in disc 0.1%): 31# mm
- Diameter of zone of Growth inhibition (Corynebacterium B-670; Concentration in disc 1.0%): 35# mm
- Diameter of zone of Growth inhibition (Corynebacterium B-670; Concentration in disc 2.0%): 40# mm
- Suppression of Growth (+/−) [2]: +
- MIC (Streptococcus pyogenes): 256 µg/mL (≈ 1240 µM)
- MIC (Streptococcus pyogenes; 0% plasma in MHB, read-out: MIC): 4 µg/mL (≈ 19.3 µM)
- MIC (Streptococcus pyogenes; 1% plasma in MHB, read-out: MIC): 4 µg/mL (≈ 19.3 µM)
- MIC (Streptococcus pyogenes; 2.5% plasma in MHB, read-out: MIC): 8 µg/mL (≈ 38.6 µM)
- MIC (Streptococcus pyogenes; 5% plasma in MHB, read-out: MIC): 8 µg/mL (≈ 38.6 µM)
- MIC (Streptococcus pyogenes; 10% plasma in MHB, read-out: MIC): 16 µg/mL (≈ 77.2 µM)
- MIC (Streptococcus pyogenes; 20% plasma in MHB, read-out: MIC): 32 µg/mL (≈ 154 µM)
- MIC (Streptococcus pyogenes; 50% plasma in MHB, read-out: MIC): 64 µg/mL (≈ 309 µM)
- Cumulative mortality (test) [3]: 47
- Incubation period days (test) [3]: 0 days
- Average zone of retardation [4]: 5.17
- MIC (Rhodotorula rubra; Rhodotorula, 96 h): 8 µg/mL (≈ 38.6 µM)
- MMC (Rhodotorula rubra): 8 µg/mL
- MIC (Candida albicans [5]; Candida albicans, 96 h): 8 µg/mL (≈ 38.6 µM)
- MMC (Candida albicans [5]): 8 µg/mL
- MIC (Proteus vulgaris RMIT): 128 µg/mL (≈ 618 µM)
- MIC (Proteus vulgaris RMIT; 24 h): 128 µg/mL (≈ 618 µM)
- MMC (Proteus vulgaris RMIT; Table 9, 35° C., 24 hours): 256 µg/mL
- MMC (Proteus vulgaris RMIT; Table 17, 2 or 3 replicates): 128 µg/mL
- Diameter of zone of Growth inhibition (Shigella sonnei B-720; Concentration in disc 0.1%): 30# mm
- Diameter of zone of Growth inhibition (Shigella sonnei B-720; Concentration in disc 1.0%): 35# mm
- Diameter of zone of Growth inhibition (Shigella sonnei B-720; Concentration in disc 2.0%): 39# mm
- Log reduction in viable count (Enterococcus faecalis): 0.6 at 9 h
- Suppression of Growth (+/−) (Acinetobacter B-681): +
- Size of zone of retardation of the growth (Staphylococcus aureus): 6.5
- MIC (Candida albicans [6]; after 12 weeks continuous exposure, read-out: Standard MIC Final): 4 µg/mL (≈ 19.3 µM)
- MIC (Candida albicans [6]; [12]): 4 µg/mL (≈ 19.3 µM)
- 7-Day MIC Range (Candida albicans [6]; Range to Week 12, No Rising Trend): 16 to 64 µg/mL
- MMC (B. subtilis; 5% blood): 16 µg/mL
- MMC (B. subtilis; 10% plasma): 8 µg/mL
- MIC (B. subtilis; 5% blood): 8 µg/mL
- MIC (B. subtilis; 10% plasma): 8 µg/mL
- MIC (B. subtilis; — (no plasma or blood)): 16 µg/mL
- MIC (Campylobacter spp.; Campylobacter): 128 µg/mL (≈ 618 µM)
- MMC (Campylobacter spp.): 128 µg/mL
- MIC (Klebsiella oxytoca; Table 9, 35° C., 24 hours): 128 µg/mL (≈ 618 µM)
- MIC (Klebsiella oxytoca; Table 17, 2 or 3 replicates): 128 µg/mL (≈ 618 µM)
- MMC (Klebsiella oxytoca; Table 9, 35° C., 24 hours): 256 µg/mL
- MMC (Klebsiella oxytoca; Table 17, 2 or 3 replicates): 256 µg/mL
- MIC (Clostridium difficile): 4 µg/mL (≈ 19.3 µM)
- MIC ([7]; Table 9, 35° C., 24 hours): 128 µg/mL (≈ 618 µM)
- MIC ([7]; Table 17, 2 or 3 replicates): 128 µg/mL (≈ 618 µM)
- MMC ([7]; Table 9, 35° C., 24 hours): 256 µg/mL
- MMC ([7]; Table 17, 2 or 3 replicates): 256 µg/mL
- MIC (Paecilomyces variotii; Paecilomyces variotii, read-out: MIC): 1 µg/mL (≈ 4.83 µM)
- MMC (Paecilomyces variotii): 2 µg/mL
- MIC (Aspergillus fumigatus; Table 20, […], after 12 weeks continuous exposure, read-out: MIC Final): 8 µg/mL (≈ 38.6 µM)
- MIC (Aspergillus fumigatus; Table 20, […], parent strain, read-out: MIC Initial): 8 µg/mL (≈ 38.6 µM)
- MIC (Aspergillus fumigatus; [12]): 8 µg/mL (≈ 38.6 µM)
- 7-Day MIC Range (Aspergillus fumigatus; to Wk 5): 8-32 to Wk 5 μg/mL
- Suppression of Growth (+/−) [8]: +
- Number of microbes: Growth ([9]; 0.1%): 0
- Number of microbes: Retardation ([9]; 0.1%): 10^5
- Number of microbes: Growth ([9]; 0.5%): 0
- Number of microbes: Retardation ([9]; 0.5%): 10^5
- Number of microbes: Growth ([9]; 2.0%): 0
- Number of microbes: Retardation ([9]; 2.0%): 10^5
- Suppression of Growth (+/−) [10]: +
- MIC ([11]; Table 9, 35° C., 24 hours): > 512 µg/mL
- MIC ([11]; Table 17, 2 or 3 replicates): > 512 µg/mL
- MMC ([11]; Table 9, 35° C., 24 hours): >512 µg/mL
- MMC ([11]; Table 17, 2 or 3 replicates): >512 µg/mL
- MMC (C. jejuni 541-3): 2
